What was measured:
[1] = system: Huh7 cells; test: MTS cytotoxicity assay in Huh7 cells; assay type: cell-based, human
Experimental: (§1) Toxicity of βTJ in Huh7 cells was determined with 3-(4,5-dimethylthiazol-2-yl)-5-β-carboxymethoxyphenyl)-2-(4-sulfophenyl)-2H-tetrazolium (MTS) assays that measures mitochondrial dysfunction employing the Cell Titre 96 aqueous nonradioactive cell proliferation assay (Promega), and with the CytoTox-Glo assay (Promega) that reflects cellular integrity. Huh7 and HepG2 cells (1×10^4) were plated in 96-well tissue culture plates, medium containing βTJ at the indicated concentrations was added the next day, the medium was replaced with fresh medium containing βTJ after two days, and after four days the MTS or CytoTox-Glo assays were conducted according to the manufacturer's instructions.

[2] = system: HBV genotype A; test: Plus-polarity preferential real-time PCR of HBV DNA, Huh7 cells; assay type: cell-based, Hepatitis B virus
Experimental: Plus-polarity preferential quantitative TaqMan PCR for the HBV DNA was conducted employing forward primer […] (SEQ ID NO: 13), reverse primer […] (SEQ ID NO:14), and probe 5′-6Fam-[…]-Zen-[…]-IabkFQ-3′ (5′-6Fam-SEQ ID NO:15-Zen-SEQ ID NO: 16-IabkFQ-3′) (Integrated DNA Technologies). PCR was conducted on purified HBV capsid-derived nucleic acids for 40 cycles of 95° C. for 15 sec. and 65° C. for 1 min. employing the TaqMan universal PCR master mix (Applied Biosystems). Results were standardized against serial dilutions of cloned HBV DNA. The EC50 was estimated by linear regression of the real-time PCR data.
The HBV plus-polarity DNA strand was measured to quantify the effects of βTJ on HBV replication because plus-polarity DNA cannot be made without RNAseH activity. Real-time PCR primers flanking the gap in the HBV minus-polarity DNA were designed that preferentially measure plus-polarity DNA because amplification across the gap in the minus-polarity DNA is inefficient. […] Above 10 μM, βTJ suppressed HBV plus-polarity DNA levels to below the assay background of approximately 14% that was determined with the D702A RNAseH-deficient genome.

[3] = system: HIV; details: cited from earlier work
[4] = system: Huh7 cells; test: CytoTox-Glo membrane integrity assay in Huh7 cells; assay type: cell-based, human; details: four days
Experimental: as §1

[5] = system: CEM-SS cells; details: cited from earlier work
[6] = target: HCV RNA-directed RNA polymerase (Hepatitis C virus genotype 1a, UniProt P27958); test: Primed homopolymeric RNA (poly-G) synthesis assay; assay type: biochemical; details: 10 μM
Sequence of HCV RNA-directed RNA polymerase (P27958 2421-3011): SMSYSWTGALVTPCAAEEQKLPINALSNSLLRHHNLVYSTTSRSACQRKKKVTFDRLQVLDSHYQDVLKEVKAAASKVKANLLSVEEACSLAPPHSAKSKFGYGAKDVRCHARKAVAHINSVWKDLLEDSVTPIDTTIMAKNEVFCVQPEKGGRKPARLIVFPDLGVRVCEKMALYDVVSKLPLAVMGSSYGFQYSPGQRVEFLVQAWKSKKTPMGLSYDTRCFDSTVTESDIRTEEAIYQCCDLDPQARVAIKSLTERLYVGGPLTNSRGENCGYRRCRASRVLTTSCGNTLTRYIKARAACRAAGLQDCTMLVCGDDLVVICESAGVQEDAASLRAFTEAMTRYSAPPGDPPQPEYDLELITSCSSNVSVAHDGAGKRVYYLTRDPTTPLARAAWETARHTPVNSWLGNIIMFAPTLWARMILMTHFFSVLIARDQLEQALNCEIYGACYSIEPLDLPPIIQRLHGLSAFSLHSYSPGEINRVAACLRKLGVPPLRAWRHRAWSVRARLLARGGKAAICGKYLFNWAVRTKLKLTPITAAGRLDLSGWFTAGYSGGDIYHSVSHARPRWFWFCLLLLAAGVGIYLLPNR
Experimental: FIGS. 9A-C. Specificity of anti-HBV RNAseH compounds. (FIG. 9A) Inhibition of HBV genotype D RNAseH by irrelevant compounds at 10 μM in the oligonucleotide-directed RNAseH assay. Compound #4 was employed as an example HBV RNAseH inhibitor. […] The ability of compounds #5, 6 and 8 to inhibit production of poly-G by the HCV RNA-directed RNA polymerase was measured in a primed homopolymeric RNA synthesis assay (Cao, et al., 2011. The compounds were employed at 10 μM. DMSO, vehicle control. (FIG. 9C) Dose-responsiveness of HBV RNAseH inhibition. The effects of compounds #6, 8, and 12 on the RNAseH activity of HRHPL (genotype D) were measured at concentrations ranging from 0.5 to 50 μM. The dose-response profile is plotted for compound #12.

[7] = system: HBV genotype D; test: HBV replication inhibition in Huh7 cells, Southern blot, genotype D; assay type: cell-based, Hepatitis B virus; details: 10 μM
Experimental: Huh7 cells were maintained in Dulbecco's modified Eagle's medium with 10% fetal bovine serum at 37° C. in 5% CO2. Cells were seeded into 60 mm dishes and transfected at 70% confluency with 2.6 μg of plasmids using TransIT-LT1 (Mirus, Inc.). Test compounds were added the morning following transfection at 10 or 50 μM, and fresh medium containing the compounds was provided every 1-2 days. Four or five days post-transfection HBV cores were isolated by lysis of the cells in 10 mM Tris pH 7.5, 1 mM EDTA, 0.25% NP40, 50 mM NaCl, and 8% sucrose followed by sedimentation through a 30% sucrose cushion as described (Travis, et al., 1998). […] The nucleic acid samples were resolved by electrophoresis on 1.2% agarose gels and detected by Southern blotting with ^32P-labeled HBV DNA as a probe.
Finally, the inventors asked whether HBV RNAseH inhibitors could block HBV replication in culture. […] Replicate nucleic acid aliquots were mock treated or treated with DNAse-free E. coli RNAseH to destroy RNA:DNA heteroduplexes, and then HBV DNAs were detected by Southern blotting. […]
Inhibition of HBV replication by βTJ was measured as recently described (Tavis et al., 2013). […] The nucleic acids were resolved by electrophoresis on 1.2% agarose gels and HBV DNAs were detected by Southern blotting with ^32P-labeled double-stranded HBV DNA as a probe to detect both the plus- and minus-polarity HBV DNA strands. […]

## CC(C)c1ccc(O)c(=O)c(O)c1 [Compound 46, beta-thujaplicinol]
[1]; four days
  CC50: 10.1 ± 1.7 µM
[2]; above 10 μM, assay background approximately 14%
  HBV plus-polarity DNA level: < 14%
[2]; read-out: 50% effective concentration (EC50), genotype A isolate in Huh7 cells
  EC50: ~5 µM
[3]
  Activity against HIV replication in cells: inactive
[4]
  CC50: > 150 µM
[5]
  CC50: 2300 nM

## Cc1c2cc(O)c(=O)cc-2oc2cc(O)c(O)cc12 [Compound 8]
[6]
  Inhibition of poly-G production by HCV RNA polymerase: do not significantly inhibit

## NCc1ccc(-c2ccc(Cc3cc(=O)n(O)c4ncccc34)cc2)cc1 [Compound 12, napthyridinone]
[1]
  Estimated CC50, MTS assay, Huh7 cells: low μM range
[2]; 10 μM, data not shown
  Plus-strand DNA accumulation: 7.3 % of the DMSO treated control
[7]
  Inhibition of HBV replication, genotype D isolate: Very few of the most slowly-migrating double-stranded nucleic acids accumulated

— patent publication US10329542B2, “HBV RNAse H purification and enzyme inhibitors” (Saint Louis University, priority 2012, dated 2019)
